Measurements as given in ChEMBL document CHEMBL1140011, “Discovery of cyclopentane- and cyclohexane-trans-1,3-diamines as potent melanin-concentrating hormone receptor 1 antagonists” (Bioorg Med Chem Lett, 2007).

Legend:
[1] = Metabolic stability assessed as intrinsic clearance in human liver microsomes; format: ADME, Microsome
[2] = molecular target: T1, Melanin-concentrating hormone receptor 1 (Homo sapiens, UniProt Q99705); assay: Displacement of [125I]MCH from human MCHR1 expressed in HEK293 cells; format: cell-based
[3] = Tmax in C57BL/6J mouse plasma at 20 umol/kg, iv and 20 umol/kg, po; format: ADME, organism-based
[4] = Half life in C57BL/6J mouse plasma at 20 umol/kg, iv and 20 umol/kg, po; format: ADME, organism-based
[5] = molecular target: T1, Melanin-concentrating hormone receptor 1; assay: Antagonist activity at human MCHR1 expressed in HEK293 cells assessed as [35S]GTP-gamma-S accumulation; format: functional, cell-based
[6] = Cmax in C57BL/6J mouse plasma at 20 umol/kg, iv and 20 umol/kg, po; format: ADME, organism-based
[7] = Ratio of Cmax in brain to plasma in C57BL/6J mouse at 20 umol/kg, iv and 20 umol/kg, po; format: ADME, organism-based; details: read-out: BPR
[8] = Fraction unbound in C57BL/6J mouse plasma; format: ADME, cell-free
[9] = Volume of distribution at steady state in C57BL/6J mouse at 20 umol/kg, iv and 20 umol/kg, po; format: ADME, organism-based; details: in vivo, read-out: Vdss
Mus musculus = assay: Cmax in C57BL/6J mouse brain at 20 umol/kg, iv and 20 umol/kg, po; format: ADME, organism-based; details: in vivo
[10] = Oral bioavailability in C57BL/6J mouse at 20 umol/kg; format: ADME, organism-based; details: in vivo
[11] = Tmax in C57BL/6J mouse brain at 20 umol/kg, iv and 20 umol/kg, po; format: ADME, organism-based
[12] = Clearance in C57BL/6J mouse at 20 umol/kg, iv and 20 umol/kg, po; format: ADME, organism-based; details: in vivo

T1 sequence (Q99705 whole entry): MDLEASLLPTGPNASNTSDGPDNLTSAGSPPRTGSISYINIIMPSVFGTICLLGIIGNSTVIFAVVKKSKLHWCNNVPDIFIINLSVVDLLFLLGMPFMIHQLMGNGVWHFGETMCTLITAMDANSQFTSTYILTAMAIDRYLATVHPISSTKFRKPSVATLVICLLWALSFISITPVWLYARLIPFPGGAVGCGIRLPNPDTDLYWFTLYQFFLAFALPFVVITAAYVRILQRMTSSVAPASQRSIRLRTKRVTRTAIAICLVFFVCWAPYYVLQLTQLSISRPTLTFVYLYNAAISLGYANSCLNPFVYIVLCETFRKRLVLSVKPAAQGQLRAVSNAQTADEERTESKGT

Row | microsomal CLint [1] | IC50 [2] | SMILES | also measured
1 | 64 µL/min/mg | 15 nM | COc1ccc2c(C)cc(N[C@H]3CCC[C@H](NCc4cccc(OC(F)(F)F)c4)C3)nc2c1 | 
2 | 20 µL/min/mg | 29 nM | COc1ccc2c(C)cc(N[C@H]3CC[C@H](NCc4cn(C)c5cccnc45)C3)nc2c1 | Tmax [3]: 24 h; half-life [4]: 516 min; IC50 [5]: 83 nM; Cmax [6]: 3.78 µM; Kp [7]: 0.13; fraction unbound [8]: 0.065; Vd [9]: 7.6 L/kg; Cmax (Mus musculus): 0.5 µmol/kg; bioavailability [10]: 100%; Tmax [11]: 15.6 min; clearance [12]: 15 mL/min/kg
3 | 30 µL/min/mg | 29 nM | CN(C)c1cc(N[C@H]2CCC[C@H](NCc3ccsc3)C2)nc2ccccc12 | IC50 [5]: 97 nM
4 | 12 µL/min/mg | 5 nM | COc1ccc2c(C)cc(N[C@H]3CC[C@H](NCc4cn(C)c5ccc(OC(F)F)cc45)C3)nc2c1 | IC50 [5]: 35 nM
5 | 12 µL/min/mg | 71 nM | COc1ccc2c(C)cc(N[C@H]3CC[C@H](NCc4cn(C)c5c4ccc4cccnc45)C3)nc2c1 | 
6 |  | 62 nM | COc1ccc2nc(N[C@H]3CC[C@H](NCc4ccsc4)C3)cc(C)c2c1 | 
7 | 500 µL/min/mg | 22 nM | COc1ccc2c(C)cc(N[C@H]3CCC[C@H](NCc4cncc5ccccc45)C3)nc2c1 | 
8 | 295 µL/min/mg | 57 nM | COc1ccc2nc(N[C@H]3CCC[C@H](NCc4ccsc4)C3)ccc2c1 | IC50 [5]: 25 nM
9 |  | 9920 nM | N#Cc1cc(N[C@H]2CCC[C@H](NCc3ccsc3)C2)nc2ccccc12 | 
10 |  | 9 nM | COc1cc(N[C@H]2CCC[C@H](NCc3ccsc3)C2)nc2ccccc12 | IC50 [5]: 8 nM
11 | 41 µL/min/mg | 61 nM | COc1ccc2c(C)cc(N[C@H]3CCC[C@H](NCc4cn(C)c5ccc(Br)cc45)C3)nc2c1 | 
12 |  | 847 nM | CN(C)c1ccc2nc(N[C@H]3CCC[C@H](NCc4ccsc4)C3)ccc2c1 | 
13 | 227 µL/min/mg | 16 nM | COc1ccc2c(C)cc(N[C@H]3CCC[C@H](NCc4ccc5nsnc5c4)C3)nc2c1 | 
14 | < 12 µL/min/mg | 39 nM | COc1ccc2c(C)cc(N[C@H]3CC[C@H](NCc4cn(C)c5ccc(C#N)cc45)C3)nc2c1 | 
15 | < 12 µL/min/mg | 20 nM | COc1ccc2c(C)cc(N[C@H]3CC[C@H](NCc4cn(C)c5c(C#N)cccc45)C3)nc2c1 | IC50 [5]: 127 nM
16 |  | 3590 nM | COc1ccc2nc(NCCNCc3ccsc3)cc(C)c2c1 | 
17 | 32 µL/min/mg | 0.1 nM | COc1ccc2c(C)cc(N[C@H]3CCC[C@H](NCc4ccsc4)C3)nc2c1 | IC50 [5]: 1 nM
18 |  | 119 nM | COc1ccc2nc(N[C@H]3CC[C@H](N(C)Cc4ccsc4)C3)cc(C)c2c1 | 
19 |  | 68 nM | c1ccc2nc(N[C@H]3CCC[C@H](NCc4ccsc4)C3)ccc2c1 | IC50 [5]: 234 nM
20 |  | 10 nM | COc1ccc2c(C)cc(N[C@H]3CCC[C@H](NCc4cccc5nsnc45)C3)nc2c1 | 
21 | 59 µL/min/mg | 13 nM | COc1ccc2c(C)cc(N[C@H]3CCC[C@H](NCc4ccc(Cl)c(Cl)c4)C3)nc2c1 | 
22 | 68 µL/min/mg | 4800 nM | FC(F)(F)c1cc(N[C@H]2CCC[C@H](NCc3ccsc3)C2)nc2ccccc12 | 
23 |  | 2130 nM | COc1ccc2nc(N3CCC(NCc4ccsc4)CC3)cc(C)c2c1 | 
24 |  | 89 nM | COc1ccc2c(C)cc(N[C@H]3CCC[C@H](NCc4cnccn4)C3)nc2c1 | 
25 | 26 µL/min/mg | 80 nM | COc1ccc2c(C)cc(N[C@H]3CC[C@H](NCc4cn(C)c5ccc(OCc6ccccc6)cc45)C3)nc2c1 | 

Row | microsomal CLint [1] | IC50 [2] | SMILES | also measured
26 |  | 231 nM | COc1cc(N[C@H]2CCC[C@H](NCc3ccsc3)C2)nc2ccc(OC(C)C)cc12 | 
27 | 269 µL/min/mg | 50 nM | COc1ccc2c(C)cc(N[C@H]3CCC[C@H](NCc4ccc(S(C)(=O)=O)cc4Cl)C3)nc2c1 | 
28 | 60 µL/min/mg | 7 nM | Cc1cc(N[C@H]2CCC[C@H](NCc3ccsc3)C2)nc2ccccc12 | IC50 [5]: 59 nM
29 |  | 2300 nM | COc1ccc2nc(N(C)[C@H]3CC[C@H](NCc4ccsc4)C3)cc(C)c2c1 | 
30 | < 12 µL/min/mg | 33 nM | COc1ccc2c(C)cc(N[C@H]3CC[C@H](NCc4cn(C)c5cc(C#N)ccc45)C3)nc2c1 | IC50 [5]: 118 nM
31 |  | 369 nM | COc1ccc2nc(N[C@H]3C[C@H]4C[C@@H]3[C@@H](NCc3ccsc3)C4)cc(C)c2c1 | 
32 |  | > 33000 nM | COc1ccc2nc(NCCCCNCc3ccsc3)cc(C)c2c1 | 
33 | 38 µL/min/mg | 54 nM | COc1cccc2nc(N[C@H]3CCC[C@H](NCc4ccsc4)C3)ccc12 | IC50 [5]: 42 nM
34 |  | 35 nM | COc1ccc2nc(N[C@H]3C[C@@H]4C[C@H]3[C@@H](NCc3ccsc3)C4)cc(C)c2c1 | 
35 |  | 1390 nM | COc1ccc2nc(N[C@H]3CCC[C@H](NCc4ccsc4)C3)c(C)cc2c1 | 
36 |  | 178 nM | COc1ccc2c(C)cc(N[C@H]3CCC[C@H](NCc4cn(C)nc4C)C3)nc2c1 | 
37 |  | 28 nM | COc1ccc(Br)c(CN[C@H]2CCC[C@H](Nc3cc(C)c4ccc(OC)cc4n3)C2)c1 | 
38 |  | 2990 nM | COc1ccc2nc(NCC3CCCN(Cc4ccsc4)C3)cc(C)c2c1 (stereo not drawn) | 
39 | 15 µL/min/mg | 5100 nM | Clc1cccc2ccc(N[C@H]3CCC[C@H](NCc4ccsc4)C3)nc12 | 
40 |  | 106 nM | COc1ccc2nc(NCCCNC(=O)c3ccsc3)cc(C)c2c1 | 
41 |  | 5010 nM | COc1ccc2nc(N[C@@H]3C[C@@H]4C[C@H]3[C@H](NCc3ccsc3)C4)cc(C)c2c1 | 
42 |  |  | COc1cc(N[C@H]2CCC[C@H](NCc3ccsc3)C2)nc2ccc(F)cc12 | IC50 [5]: 90 nM
43 | < 12 µL/min/mg | 9 nM | COc1ccc2c(C)cc(N[C@H]3CC[C@H](NCc4cn(C)c5ccccc45)C3)nc2c1 | IC50 [5]: 85 nM
44 |  | 411 nM | COc1ccc2nc(N[C@@H]3CCC[C@@H](NCc4ccsc4)C3)cc(C)c2c1 | 
45 |  | 2520 nM | CC(=O)N(C)c1ccc2nc(N[C@H]3CCC[C@H](NCc4ccsc4)C3)ccc2c1 | 
46 | 52 µL/min/mg | 58 nM | COc1ccc2c(C)cc(N[C@H]3CCC[C@H](NCc4cn(C(=O)N(C)C)c5ccc(Cl)cc45)C3)nc2c1 | 
47 |  | 15 nM | COc1ccc2nc(NCCCNCc3ccsc3)cc(C)c2c1 | 
48 |  | 3 nM | COc1ccc2nc(N[C@H]3CCC[C@H](NCc4ccsc4)C3)cc(C)c2c1 | 
49 |  | 571 nM | Clc1ccc2nc(N[C@H]3CCC[C@H](NCc4ccsc4)C3)ccc2c1 | 
